Earlier results on one compound are cited in patent publication US20010056087A1, “Use of 5alpha-androst-1en-3,17-diol to increase the level of the anabolic/androgenic hormone 17beta-hydroxy-5alpha-androst-1-en-3-one in humans” (priority 2000, published 2001).

For this data set the following is noted: One hundred mg given orally to men.

Structures are written as SMILES.

As for `C[C@]12C=CC(=O)C[C@@H]1CC[C@@H]1[C@@H]2CC[C@]2(C)C(=O)CC[C@@H]12` [1-androstenedione, 5alpha-androst-1-en-3,17-dione], the “excretion of 17beta-hydroxy-5alpha-androst-1-en-3-one in the urine (in-vivo conversion)” value is listed as “considerable excretion of 17beta-hydroxy-5alpha-androst-1-en-3-one in the urine”.
